One assay relates to microglia. Nature of the assay: Inhibition of the microglia activation. The class given is cell-based. The source says:
Compounds that with stimulation with the Aβ-peptide achieve an inhibition of the microglia activity of at least 20% and an inhibition of the cytokine activity of at least 30% are suitable, according to the invention, as microglia inhibitors. The biological properties of the microglia inhibitors can be shown according to the methods that are known to one skilled in the art, for example with the aid of the testing methods that are described below and in WO 01/51473.

A further assay relates to IFNγ. Nature of the assay: Inhibition of the IFNγ production of peripheral mononuclear blood cells (phytohemagglutinin-stimulated). It counts as cell-based. Conditions: human peripheral mononuclear blood cells, 5 μg/mL phytohemagglutinin, 48 hours; read-out: Inhibition of the IFNγ Secretion (IC50). As for the experimental part: To visualize the effect of the substances on T-cell activation, for example, the measurement of the IFNγ-secretion can be used.
To isolate peripheral mononuclear cells, human whole blood was used (drawing of blood via Na-citrate S-monovettes “Coagulation 9 NC/10 ml”/Sarstedt). The build-up of the blood cells was accomplished with the aid of density gradient centrifuging: For this purpose, 15 ml of Histopaque 1077 (Sigma, Cat. No. H8880) in LEUCOSEP tubes (Greiner, Cat. No. 227290) is introduced and centrifuged for 30 seconds at 1000 g. Then, 15 ml of whole blood is added and centrifuged for 10 minutes at 1000 g. Finally, the upper plasma layer is pipetted off and the subjacent cell layer (peripheral mononuclear blood cells) is transferred in 15 ml sample tubes (Falcon) and then […] several times with 10 ml of HBSS (HANKS Balanced Solution (without Mg2+ and Ca2+), Cat. No. 14175-53). […]
Then the medium was harvested, and the amount of IFNγ was determined quantitatively. The amount of IFNγ was determined with the aid of the ORIGEN technology (IGEN International, Inc., Gaithersburg, Md.). […]

The next assay has as its system interleukin 12. Nature of the assay: Inhibition of the IL 12 production in LPS-stimulated THP-1 cells. The class given is cell-based. Conditions: Homo sapiens, 0.1 μg/ml LPS overnight, read-out: Inhibition of the IL 12 Secretion (IC50). As for the experimental part: (§1) The inhibition of the cytokine production can be visualized, for example, by measuring TNFα and interleukin 12 in lipopolysaccharide (LPS)-stimulated THP-1 cells.
(§2) For this purpose, 2.5×10^5 THP-1 cells (American Type Culture Company, Rockville, Md.)/ml of RPMI 1640 medium (Life Technologies)/10% FCS (Life Technologies, Cat. No. 10270-106) are grown on 96-hole flat-bottomed cell culture plates (TPP, Product No.9296) (100 μl/hole). The compounds according to the invention are added at various concentrations and pre-incubated for 30 minutes. The pre-dilution of the test substances was performed in the incubation medium. The addition of the test substances is carried out as a 2× concentrated substance solution (100 μl/hole). The stimulation of the cells was carried out overnight at 37° C with 0.1 μg/ml of LPS (Sigma L2630, of E. Coli Serotype 011 1.B4). Then, the medium was harvested, and the amount of TNFα or the amount of interleukin 12 was quantitatively determined. To measure the TNFα, a commercially available TNFα kit of the CIS Bio International Company was used (Product No. 62TNFPEB). The amount of interleukin 12 was implemented with the aid of the ORIGEN technology (IGEN International, Inc., Gaithersburg, Md.). The calculated IC50 value corresponds to the concentration of test substance that is required to reach a 50% inhibition of the maximum TNFα or interleukin 12 production. […]

The subject of the next assay is IL-12 HD p70. Nature of the assay: Inhibition of IL-12 HD p70 production of peripheral mononuclear blood cells stimulated with LPS and IFNγ. Conditions: 24 hours; for IC50: Homo sapiens, read-out: Inhibition of IL-12HD Secretion after LPS & IFNg Stimulation IC50. It counts as cell-based, human. As for the experimental part: (§3) The inhibition of the TNFα and IL-12 HD p70 production is visualized by, for example, measuring TNFα and IL-12 HD p70 in peripheral mononuclear blood cells that are stimulated with lipopolysaccharide (LPS) and interferon gamma (IFNγ).
(§4) To isolate peripheral mononuclear blood cells, human whole blood was used (drawing of blood via Na-Citrate S-monovettes “Coagulation 9 NC/10 ml”/Sarstedt). The build-up of the lymphocytes and monocytes was accomplished with the aid of the density gradient centrifuging: For this purpose, 15 ml of Histopaque-1077 (Sigma, Cat. No. H8880) is introduced into 50 ml LEUCOSEP tubes (Greiner, Cat. No. 227290) and forced downward by centrifuging for 30 seconds at 250 g by the frits that are contained in the tubes. Then, 20 ml of whole blood is added and centrifuged for 15 minutes at 800 g and at room temperature. After centrifuging, the supernatant (plasma and thrombocytes) is pipetted off and discarded, and the subjacent cell layer (lymphocytes and monocytes) is transferred into 50 ml centrifuging tubes (Falcon) and then washed 3× in culture medium VLE RPMI 1640 (Seromed, No. FG1415) (centrifuging in each case for 10 minutes at 250 g, room temperature). Finally, the cell pellet is resuspended in culture medium VLE RPMI 1640 (Seromed, No. FG1415), 10% FCS (Life Technologies, Cat. No. 16000-044, low endotoxin, heat-inactivated for 1 hour, 56° C.), and 50 μg/ml of penicillin-streptomycin solution (Life Technologies, Cat. No.15140-106) and set at 3×10^6 cells/ml after cell counting by means of trypan blue staining. In each case, 100 μl of cell suspension solution was dispersed on 96-hole flat-bottomed cell culture plates (Costar, Product No. 3599). In each case, 100 μl of 3×-concentrated stimulation solution (3 μg/ml of LPS of E. coli Serotype 0127:B8; Sigma, Cat. No. L-4516 and 300 ng/ml of IFNγ 1b, Imukin, Boehringer Ingelheim) was added to it. The substances according to the invention were added at various concentrations as 3×-concentrated substance solution (100 μl/well). The stimulation of the cells was carried out at 37° C. and 5% CO2 over a period of 24 hours. Then, the cell culture supernatant was harvested, and the concentrations of TNFα and IL-12 HD p70 were determined by means of commercially available ELISA Kits of the BioSource International Company (TNF-α EASIA, Cat. No. KAC 1752) and R & D Systems (Quantikine1υ HS IL-12, Cat. No. HS 120).
(§5) The calculated IC50 value corresponds to the concentration of test substance that is required to reach a 50% inhibition of the maximum TNFα- or interleukin 12 HD p70 production.

The test system of assay [1] is TNFα. Description: Inhibition of TNFα production of peripheral mononuclear blood cells stimulated with LPS and IFNγ. It counts as cell-based, human. The following applies: 24 hours; for IC50: Homo sapiens, read-out: Inhibition of TNF-alpha Secretion after LPS & IFNg Stimulation IC50. As for the experimental part: as §3, §4, §5
Assay [2] deals with TNFα. Description: Inhibition of the TNFα production in LPS-stimulated THP-1 cells. It counts as cell-based. Conditions: Homo sapiens, 0.1 μg/ml LPS overnight, read-out: Inhibition of the TNFα Secretion (IC50). As for the experimental part: as §1, §2
Another assay deals with IL-10. Nature of the assay: Induction of IL-10 production of peripheral mononuclear blood cells. The class given is cell-based, human. The following applies: 24 hours; for EC50: Homo sapiens, PHA, read-out: Induction of the IL-10 Secretion after PHA Stimulation EC50. The protocol:
The induction of IL-10 production is visualized by, for example, measuring IL-10 in peripheral mononuclear blood cells that are stimulated in phytohemagglutinin (PHA) or lipopolysaccharide (LPS).
To isolate peripheral mononuclear blood cells, human whole blood was used (drawing of blood via Na-Citrate S-monovettes “Coagulation 9 NC/10 ml”/Sarstedt). The build-up of the lymphocytes and monocytes was accomplished with the aid of the density gradient centrifuging: For this purpose, 15 ml of Histopaque-1077 (Sigma, Cat. No. H8880) in 50 ml LEUCOSEP tubes (Greiner, Cat. No. 227290) is introduced and forced downward by centrifuging for 30 seconds at 250 g by the frits that are contained in the tubes. Then, 20 ml of whole blood is added and centrifuged for 15 minutes at 800 g and at room temperature. After centrifuging, the supernatant (plasma and thrombocytes) is pipetted off and discarded, and the subjacent cell layer (lymphocytes and monocytes) in 50 ml centrifuging tubes (Falcon) is transferred and then washed 3× in culture medium VLE RPMI 1640 (Seromed, No. FG1415) (centrifuging in each case for 10 minutes at 250 g, room temperature). Finally, the cell pellet is resuspended in culture medium VLE RPMI 1640 (Seromed, No. FG1415), 10% FCS (Life Technologies, Cat. No. 16000-044, low endotoxin, heat-inactivated for 1 hour, 56° C.), 50 μg/ml of penicillin-streptomycin solution (Life Technologies, Cat. No. 15140-106) and set at 3×10^6 cells/ml after cell counting by means of trypan blue staining. In each case, 100 μl of cell suspension solution was dispersed on 96-hole flat-bottomed cell culture plates (Costar, Product No. 3599). In each case, 100 μl of 3×-concentrated stimulation solution (3 μg/ml of LPS of E. coli Serotype 0127:B8; Sigma, Cat. No. L-4516 or 300 μg/ml of PHA-L, Biochrom KG, Cat. No. M5030) was added to it. The substances according to the invention were added at various concentrations as 3×-concentrated substance solution (100 μl/well). The stimulation of the cells was carried out at 37° C. and 5% CO2 over a period of 24 hours. Then, the cell culture supernatant was harvested, and IL-10 was determined quantitatively. The IL-10 concentration was determined by means of a commercially available ELISA Kit of the BioSource International Company (human IL-10, Cat. No. KHC0101C). The calculated EC50 value corresponds to the concentration of test substance that is required to increase the IL-10 secretion by 50% of the maximum increase.

The IC50 is the concentration needed to halve the response being measured. The EC50 is the concentration at which the effect is half-maximal. With `Cc1ccc(-n2c(-c3ccccc3)nc3ccc(OCCCCCC(=O)OC(C)C)cc32)cc1` [Substance 1, 6-[[1-(4-Methylphenyl)-2-phenyl-1H-benzimidazol-6-yl]oxy]hexanoic acid-isopropyl ester], the IC50 in the assay on microglia was determined as 750 nM; with IFNγ, 1300 nM; with interleukin 12 it was 2200 nM; in the assay with IL-12 HD p70, 92 nM; in the assay with TNFα [1], 650 nM; with TNFα [2], 3000 nM. Besides, the “Inhibition of IL-12HD Secretion after LPS & IFNg Stimulation Effectiveness” value in the assay on IL-12 HD p70 worked out at 81%. Further, in the assay on TNFα [1], the “Inhibition of TNF-alpha Secretion after LPS & IFNg Stimulation Effectiveness” value is reported as 65%. In addition, the “Induction of the IL-10 Secretion after PHA Stimulation Effectiveness” value in the assay with IL-10 worked out at 245%. In addition, in the assay on IL-10, the EC50 was above 1000 nM.

Turning to `Cc1ccc(-n2c(-c3ccccc3)nc3ccc(OCCCCCC(=O)O)cc32)cc1` [Substance 2, 6-[[1-(4-Methylphenyl)-2-phenyl-1H-benzimidazol-6-yl]oxy]hexanoic acid], the IC50 with microglia is 160 nM; in the assay with IFNγ it was 110 nM; in the assay on interleukin 12, below 300 nM; with IL-12 HD p70, 30 nM; in the assay on TNFα [1], 120 nM; in the assay with TNFα [2], 150 nM. Moreover, the “Inhibition of IL-12HD Secretion after LPS & IFNg Stimulation Effectiveness” value in the assay with IL-12 HD p70 is recorded as 93%. The “Inhibition of TNF-alpha Secretion after LPS & IFNg Stimulation Effectiveness” value with TNFα [1] amounted to 83%. Further, in the assay with IL-10, the “Induction of the IL-10 Secretion after PHA Stimulation Effectiveness” value stood at 283%. In the assay with IL-10, the EC50 turned out to be 180 nM.

Source of the values: patent publication US20060211690A1, “Microglia inhibitors for interrupting interleukin 12 and IFNgamma-mediated immune reactions” (Schering Aktiengesellschaft, priority 2002, published 2006).
